How the values were obtained:
U87-MG/GFP-Luc cells = assay: Drug sensitivity and synergy with TTFields; format: cell-based, human; settings: TTFields for 3 days vs. no TTFields
GBM39 cells = assay: Drug sensitivity with TTFields; format: cell-based, human; settings: TTFields for 3 days vs. no TTFields
pcGBM2/GFP-Luc cells = settings: TTFields for 3 days vs. no TTFields
U87-MG/eGFP-fLuc cells [1] = assay: Annexin-V-APC binding (apoptosis) by fluorescence microscopy; format: cell-based, human; settings: 21 μM, TTFields-unexposed
Protocol: To test if the imposition of TTFields affects cell membrane properties, and thus membrane permeability, the effect of TTFields on the behavior of fluorescently tagged reagents that bind to the cellular membrane was determined. Initially, the impact of TTFields on the binding of Annexin-V-APC to the membrane of U87-MG/eGFP-fLuc cells was measured. Annexin-V-APC binding is a signature of early apoptosis which is characterized by ruffling of the membrane.

human glioblastoma cells = assay: Growth inhibition by TTFields in conjunction with Withaferin A; format: cell-based
Description: In this figure, 5-ALA=5-aminolevulinic acid; Ethidium D=ethidium bromide; and FITC=fluorescein isothiocyanate.

GBM39/Luc cells = assay: Drug sensitivity and synergy with TTFields; format: cell-based, human; settings: TTFields for 3 days vs. no TTFields
KR158B = assay: Bioluminescence of Renilla luciferase-expressing astrocytoma cells, TTFields vs. no TTFields; format: cell-based, murine
Protocol: Studies were then performed that validate the hypothesis.
Renilla luciferase activity is not dependent upon ATP and magnesium (as opposed to firefly luciferase). Thus, it is believed that the induction of bioluminescence by TTFields was not due to alterations in endogenous pools of ATP.

[2] = test system: MDA-MB-435 cells, wild type; assay: Intracellular accumulation of doxorubicin under alternating electric fields; format: cell-based, human; settings: 10 μM, 1 h; 150 kHz, 1.62 V/cm vs. no field
[3] = test system: MDA-MB-435 cells, doxorubicin resistant; assay: as above; format: cell-based, human; settings: 10 μM, 1 h; 150 kHz, 1.62 V/cm vs. no field
MDA-MB-235 cells = assay: Drug sensitivity and synergy with TTFields; format: cell-based; settings: TTFields for 3 days vs. no TTFields
MES-SA cells = assay: Intracellular accumulation of doxorubicin under 150 kHz alternating electric fields; format: cell-based; settings: 10 μM, 1 h, 1.62 V/cm RMS, 24 hours vs. no field
U87-MG/eGFP-fLuc cells [4] = assay: Reversibility of the TTFields effect on uptake (BLI, PpIX, Dextran-FITC fluorescence); format: cell-based, human; settings: TTFields 24 h vs. none vs. TTFields 24 h followed by 24 h no TTFields
Description: All experimental conditions were done in triplicate.

U87-MG/eGFP-fLuc cells [5] = settings: TTFields 4 V/cm, 200 kHz, 0.5-24 h vs. no TTFields
Protocol: U87-MG/eGFP-fLuc cells were seeded on Thermanox glass coverslips, allowed to settle and grow, and then subjected to either TTFields or no TTFields.
The coverslips were transferred to a ceramic dish of the Inovitro™ system, which in turn was mounted onto Inovitro™ base plates (Novocure Ltd., Haifa, Israel). Tumor treating fields at 200 kHz (1-4 V/cm) were applied through an Inovitro™ power generator. Incubator ambient temperatures spanned 20-27° C. with a target temperature of 37° C. in the ceramic dishes upon application of the TTFields. Duration of TTFields exposure lasted anywhere from 0.5 to 72 h, after which coverslips were removed and processed for the appropriate bioassays (see below). For reversibility experiments, the TTFields-exposed coverslips were transferred to a regular incubator without TTFields exposure for 24 h (off TTFields period to assess for reversibility of the TTFields effect on cell membrane permeability) prior to processing for the appropriate bioassays. Culture media were exchanged manually every 24 h throughout the experiments to account for evaporation. Corresponding control experiments (no TTFields) were done by placing equivalent coverslips within 6-well or 12-well plates into a conventional humidified tissue culture incubator (37° C., 95% air/5% CO2) and cells grown in parallel with the TTFields-exposed coverslips. […]

U87-MG cells [6] = assay: Timing of permeability to 7-AAD after cessation of the field, flow cytometry; format: cell-based, human; settings: 300 kHz, 1.62 V/cm RMS, 24 h; 7-AAD added 15 minutes prior to cessation of the field
Protocol: FIG. 7D depicts the results of an experiment to test how quickly the permeability drops back down after cessation of the alternating electric fields. More specifically, 7-Aminoactinomycin D (7-AAD) is a fluorescent chemical compound with a strong affinity for DNA. […] 7-AAD was introduced into samples at five different times: 15 minutes prior to the cessation of the alternating electric field; immediately after cessation of the alternating electric field; and 15, 30, and 60 minutes after cessation of the alternating electric field. In each case, the cells were incubated with 7-AAD for 30 minutes after introduction of the 7-AAD, followed by flow cytometry analysis of the percentage of cells with increased accumulation of the fluorescent 7-AAD for each of the different timings.

[7] = test system: MDA-MB-435 human melanoma cell line cells; assay: Permeability to 7-AAD under alternating electric fields, flow cytometry; format: cell-based; settings: 150 kHz, 24 h
Protocol: After this 15 minute period, alternating electric field application was terminated and the cells were incubated at room temperature for an additional 15 minutes.
After this 24 hour period, the alternating electric fields were turned off for 15 minutes, after which the 7-AAD was added. After waiting an additional 15 minutes, the percentage of cells with increased accumulation of the fluorescent 7-AAD was determined using flow cytometry.

[8] = test system: MCF-7 cells, mitoxantrone resistant; assay: Intracellular accumulation of mitoxantrone under alternating electric fields; format: cell-based, human; settings: 2 μM, 1 h; 150 kHz, 1.62 V/cm vs. no field
Protocol: (§1) The intracellular accumulation of mitoxantrone was then measured.

MCF-7 cells, wild type = assay: as above; format: cell-based, human; settings: 2 μM, 1 h; 150 kHz, 1.62 V/cm vs. no field
Protocol: as §1

U87-MG cells [9] = assay: 5-ALA uptake measured by PpIX fluorescence, single U87-MG culture; format: cell-based, human
Protocol: Experiments were performed to determine the effects of TTFields on uptake of 5-ALA (as measured by PpIX accumulation and its resultant fluorescence) in glioblastoma cells. Because it is difficult to distinguish the margin between tumor and normal cells using the present 5-ALA bioassay, the measurement of PpIX fluorescence was used to address this issue. Investigations were run to determine whether permeation of 5-ALA through the cellular membrane and into the glioblastoma cells could be increased with TTFields exposure. U87-MG cells were exposed or unexposed to TTFields, each for durations of 6-24 h.
All monovariant statistical comparisons between no TTFields vs. TTFields samples done by Student's t-test for n=3 experiments per time point.

[10] = test system: U87-MG GBM on PCS-201 fibroblast co-cultures; assay: 5-ALA uptake (PpIX fluorescence) in U87-MG GBM on PCS-201 fibroblast co-cultures
firefly luciferase = target: T1, firefly luciferase (Photinus pyralis, UniProt P08659); assay: Activity of purified firefly luciferase exposed to TTFields; format: biochemical; settings: TTFields vs. no TTFields, p<0.01
T1 construct: purchased Sigma Aldrich Inc SRE0045-2MG
T1 sequence (P08659 whole entry): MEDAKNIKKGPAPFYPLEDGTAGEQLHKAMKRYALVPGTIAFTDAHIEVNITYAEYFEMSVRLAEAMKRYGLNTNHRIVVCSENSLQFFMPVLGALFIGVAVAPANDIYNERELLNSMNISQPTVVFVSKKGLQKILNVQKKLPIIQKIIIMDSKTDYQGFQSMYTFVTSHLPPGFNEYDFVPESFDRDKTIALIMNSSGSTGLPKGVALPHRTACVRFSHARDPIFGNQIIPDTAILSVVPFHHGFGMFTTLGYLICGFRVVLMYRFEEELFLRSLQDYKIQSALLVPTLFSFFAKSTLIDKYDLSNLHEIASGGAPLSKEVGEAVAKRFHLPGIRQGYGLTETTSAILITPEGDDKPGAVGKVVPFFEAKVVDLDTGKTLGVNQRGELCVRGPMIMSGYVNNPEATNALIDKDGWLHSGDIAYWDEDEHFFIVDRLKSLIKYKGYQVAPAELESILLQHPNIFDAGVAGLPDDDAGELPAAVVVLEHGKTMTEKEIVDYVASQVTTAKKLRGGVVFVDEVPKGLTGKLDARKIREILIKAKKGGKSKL

glioblastoma patients = assay: Survival of glioblastoma patients, TTFields plus temozolomide vs. temozolomide alone; format: in vivo, human; settings: after 1 year of TTFields exposure
Description: The treatment of glioblastoma (GBM) using alternating electric fields is a novel, validated therapy that has become an additional modality (after surgery chemoradiation and chemotherapy) for anti-cancer treatments. Intermediate frequency alternating electric fields (100-500 kHz) have been studied in detail. […] In the context of treating tumors, alternating electric fields at these frequencies are often referred to as “tumor treating fields” or “TTFields.”
Recurrence of GBM is inevitable and the median time to first recurrence despite standard therapy is approximately 7 months. […] TTFields compliance (≥75% vs. <75%) was an independent predictor of overall survival in the retrospective analysis of the full EF-14 trial dataset and the duration of use of TTFields was also found to affect overall survival. […] Namely, a correlation between the length of TTFields exposure and the duration of its effect on cell membrane permeability after cessation of TTFields was observed. At lengths of TTFields exposure of 0.5-3 h, the duration in BLI augmentation (compared to no TTFields conditions) lasted about 5 min. However, at TTFields exposures of 12-25 h, this difference in BLI between TTFields and no TTFields conditions lasted for more than 20 min.

## O=NN(CCCl)C(=O)NC1CCCCC1 [Lomustine]
U87-MG/GFP-Luc cells
  sensitivity of cells to the drug: improves the sensitivity
GBM39 cells
  sensitivity of cells to the drug: improves the sensitivity
pcGBM2/GFP-Luc cells
  sensitivity of cells to the drug: improves the sensitivity

## CC1=C(CO)C(=O)O[C@@H]([C@@H](C)[C@H]2CC[C@H]3[C@@H]4C[C@H]5O[C@]56[C@@H](O)C=CC(=O)[C@]6(C)[C@H]4CC[C@]23C)C1 [Withaferin A]
U87-MG/eGFP-fLuc cells [1]
  Annexin-V-APC binding (positive control for apoptosis): could be visualized
Human glioblastoma cells
  growth inhibition in conjunction with TTFields: synergistically inhibited the growth

## CCc1c2c(nc3ccc(OC(=O)N4CCC(N5CCCCC5)CC4)cc13)-c1cc3c(c(=O)n1C2)COC(=O)[C@]3(O)CC [Irinotecan]
GBM39/Luc cells
  sensitivity of cells to the drug: improves the sensitivity

## Oc1ccc(Cc2nc3c(Cc4ccccc4)nc(-c4ccc(O)cc4)cn3c2O)cc1 [coelenterazine]
KR158B
  permeation of the luciferase substrate through the plasma membrane (bioluminescence): increased permeation

## COc1cccc2c1C(=O)c1c(O)c3c(c(O)c1C2=O)C[C@@](O)(C(=O)CO)C[C@@H]3O[C@H]1C[C@H](N)[C@H](O)[C@H](C)O1 [doxorubicin]
[2]
  intracellular accumulation: increased
[3]
  intracellular accumulation: increased
MDA-MB-235 cells
  sensitivity of cells to the drug: improves the sensitivity
MES-SA cells
  increase of intracellular accumulation: more than 2 ×

## O=C(O)[C@H]1CSC(c2nc3ccc(O)cc3s2)=N1 [D-luciferin]
U87-MG/eGFP-fLuc cells [4]
  uptake with field and after cessation of the field: reversibly increase uptake
U87-MG/eGFP-fLuc cells [5]
  permeation of the luciferase substrate through the plasma membrane (bioluminescence): increased permeation

## Cc1c2oc3c(C)c(N)cc(C(=O)N[C@@H]4C(=O)N[C@H](C(C)C)C(=O)N5CCC[C@H]5C(=O)N(C)CC(=O)N(C)[C@@H](C(C)C)C(=O)O[C@@H]4C)c3nc-2c(C(=O)N[C@@H]2C(=O)N[C@H](C(C)C)C(=O)N3CCC[C@H]3C(=O)N(C)CC(=O)N(C)[C@@H](C(C)C)C(=O)O[C@@H]2C)c(N)c1=O [7-AAD, 7-Aminoactinomycin D]
U87-MG cells [6]
  percentage of cells with increased accumulation of 7-AAD: significant increase in accumulation
[7]; 1.62V/cm, 7-AAD added 15 minutes after fields turned off
  percentage of cells with increased accumulation of 7-AAD: ~20%
[7]; 1.62 V/cm, 7-AAD added for the last 15 minutes of the field
  percentage of cells with increased accumulation of 7-AAD: ~66%

## O=C1c2c(O)ccc(O)c2C(=O)c2c(NCCNCCO)ccc(NCCNCCO)c21 [mitoxantrone]
[8]
  intracellular accumulation: increased
MCF-7 cells, wild type
  intracellular accumulation: increased

## NCC(=O)CCC(=O)O [5-ALA, 5-aminolevulinic acid]
U87-MG cells [9]; 6 h TTFields (200 kHz) vs. no TTFields, p=0.047
  uptake (PpIX fluorescence): significantly increased uptake
U87-MG cells [9]; 24 h TTFields (200 kHz) vs. no TTFields, p=0.011
  uptake (PpIX fluorescence): increase was maintained
U87-MG/eGFP-fLuc cells [4]
  uptake with field and after cessation of the field: reversibly increase uptake
[10]; TTFields 2, 6, 24 h vs. unexposed co-cultures, p<0.001
  rate of PpIX fluorescence intensity increase: significantly augmented
[10]; TTFields vs. no TTFields
  tumor to normal cell ratio for PpIX fluorescence: significantly enhances

## firefly luciferase: purified firefly luciferase (SRE0045-2MG) purchased from Sigma Aldrich
Firefly luciferase
  activity of purified firefly luciferase: significantly decreased activity

## Cn1nnc2c(C(N)=O)ncn2c1=O [Temozolomide]
Glioblastoma patients
  percent increase in overall survival: 32%

— patent publication US11529511B2, “Using alternating electric fields to increase cell membrane permeability” (The Board of Trustees of the Leland Stanford Junior …, priority 2018, dated 2022)
